System: SARS-COV-2 KCDC03 strain (A lineage), KDCA51463 strain (Alpha lineage), and KDCA55905 strain (Beta lineage)
Type: in vivo, Golden Syrian hamsters
Conditions: 40 mg kg^−1 day^−1 lipase inhibitor, 2.5 mg/kg/day remdesivir

**Q.** How did the “pneumonia severity (and weight loss), comparison between treatment groups” value turn out when `CCN(CC)C(=O)Nc1cccc(-c2ccc(N(C)C)cc2)c1` [DABPU-DE] was run?
**A.** more improvement
